Activity calls are given as the source filed them. Cut-off read from the data, not from the text of the source, for most assays here: actives have a measured Kd and inactives only a lower limit.
Assays:
[1] = target: Calcium/calmodulin-dependent protein kinase type II subunit gamma (Homo sapiens, UniProt Q13555)
[2] = target: Serine/threonine-protein kinase MRCK gamma (Homo sapiens, UniProt Q6DT37)
Ephrin type-A receptor 1 = target: T1, Ephrin type-A receptor 1 (Homo sapiens, UniProt P21709)
T1 sequence (P21709 whole entry): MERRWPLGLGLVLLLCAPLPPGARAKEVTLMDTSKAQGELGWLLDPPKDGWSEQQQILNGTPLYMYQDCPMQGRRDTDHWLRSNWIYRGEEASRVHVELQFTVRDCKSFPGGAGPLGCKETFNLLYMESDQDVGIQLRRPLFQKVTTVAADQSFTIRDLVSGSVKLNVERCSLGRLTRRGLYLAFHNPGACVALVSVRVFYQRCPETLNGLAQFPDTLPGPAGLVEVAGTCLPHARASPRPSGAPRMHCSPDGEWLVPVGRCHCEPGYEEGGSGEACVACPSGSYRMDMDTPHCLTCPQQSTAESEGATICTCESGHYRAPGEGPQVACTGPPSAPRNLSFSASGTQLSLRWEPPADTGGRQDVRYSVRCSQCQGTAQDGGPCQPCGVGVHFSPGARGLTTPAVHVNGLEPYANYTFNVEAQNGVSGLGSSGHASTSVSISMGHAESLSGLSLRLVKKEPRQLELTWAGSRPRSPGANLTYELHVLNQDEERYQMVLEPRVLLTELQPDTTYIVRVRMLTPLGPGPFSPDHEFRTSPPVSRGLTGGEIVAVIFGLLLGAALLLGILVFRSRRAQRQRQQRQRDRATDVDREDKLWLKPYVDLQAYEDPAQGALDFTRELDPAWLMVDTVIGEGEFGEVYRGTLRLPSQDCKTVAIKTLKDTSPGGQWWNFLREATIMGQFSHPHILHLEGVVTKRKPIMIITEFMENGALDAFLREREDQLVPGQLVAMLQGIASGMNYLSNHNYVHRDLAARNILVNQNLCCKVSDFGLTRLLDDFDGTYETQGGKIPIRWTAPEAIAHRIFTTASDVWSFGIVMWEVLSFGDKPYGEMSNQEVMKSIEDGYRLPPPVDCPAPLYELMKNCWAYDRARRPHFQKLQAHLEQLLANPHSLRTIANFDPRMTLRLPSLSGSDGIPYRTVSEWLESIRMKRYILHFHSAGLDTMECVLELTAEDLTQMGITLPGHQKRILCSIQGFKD

[3] = target: T2, Serine/threonine-protein kinase TAO2 (Homo sapiens, UniProt Q9UL54)
T2 sequence (Q9UL54 whole entry): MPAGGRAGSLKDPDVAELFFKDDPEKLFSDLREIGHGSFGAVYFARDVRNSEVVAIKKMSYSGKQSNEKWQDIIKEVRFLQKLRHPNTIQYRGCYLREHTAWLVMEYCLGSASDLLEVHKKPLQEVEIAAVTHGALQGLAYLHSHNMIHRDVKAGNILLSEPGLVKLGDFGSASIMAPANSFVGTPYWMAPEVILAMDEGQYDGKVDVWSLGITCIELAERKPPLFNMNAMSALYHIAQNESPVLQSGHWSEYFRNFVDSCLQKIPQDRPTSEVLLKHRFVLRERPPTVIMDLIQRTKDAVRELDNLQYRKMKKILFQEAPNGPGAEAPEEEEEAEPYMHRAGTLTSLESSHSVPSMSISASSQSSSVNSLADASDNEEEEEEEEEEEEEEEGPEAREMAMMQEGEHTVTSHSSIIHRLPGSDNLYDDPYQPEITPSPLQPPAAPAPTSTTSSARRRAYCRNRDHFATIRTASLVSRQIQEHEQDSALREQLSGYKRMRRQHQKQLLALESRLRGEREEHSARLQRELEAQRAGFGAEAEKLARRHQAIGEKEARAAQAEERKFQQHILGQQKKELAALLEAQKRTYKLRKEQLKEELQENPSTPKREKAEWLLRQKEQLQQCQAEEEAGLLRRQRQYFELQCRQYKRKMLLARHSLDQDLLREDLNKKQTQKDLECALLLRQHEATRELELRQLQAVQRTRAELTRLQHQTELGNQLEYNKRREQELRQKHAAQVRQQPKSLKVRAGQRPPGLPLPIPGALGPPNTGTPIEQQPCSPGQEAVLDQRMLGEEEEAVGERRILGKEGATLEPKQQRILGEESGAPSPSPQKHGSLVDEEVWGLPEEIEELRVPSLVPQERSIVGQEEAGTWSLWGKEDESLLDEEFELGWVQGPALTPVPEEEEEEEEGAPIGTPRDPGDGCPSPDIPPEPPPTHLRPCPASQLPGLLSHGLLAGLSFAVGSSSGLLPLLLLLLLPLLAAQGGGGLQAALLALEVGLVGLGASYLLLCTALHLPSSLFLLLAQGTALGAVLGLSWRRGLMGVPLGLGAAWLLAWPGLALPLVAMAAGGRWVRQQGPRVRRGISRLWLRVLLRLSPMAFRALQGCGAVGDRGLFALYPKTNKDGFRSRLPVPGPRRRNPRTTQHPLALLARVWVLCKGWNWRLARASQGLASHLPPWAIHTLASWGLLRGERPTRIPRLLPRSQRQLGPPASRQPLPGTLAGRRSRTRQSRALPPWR

TGF-beta receptor type-1 = target: T3, TGF-beta receptor type-1 (Homo sapiens, UniProt P36897)
T3 sequence (P36897 whole entry): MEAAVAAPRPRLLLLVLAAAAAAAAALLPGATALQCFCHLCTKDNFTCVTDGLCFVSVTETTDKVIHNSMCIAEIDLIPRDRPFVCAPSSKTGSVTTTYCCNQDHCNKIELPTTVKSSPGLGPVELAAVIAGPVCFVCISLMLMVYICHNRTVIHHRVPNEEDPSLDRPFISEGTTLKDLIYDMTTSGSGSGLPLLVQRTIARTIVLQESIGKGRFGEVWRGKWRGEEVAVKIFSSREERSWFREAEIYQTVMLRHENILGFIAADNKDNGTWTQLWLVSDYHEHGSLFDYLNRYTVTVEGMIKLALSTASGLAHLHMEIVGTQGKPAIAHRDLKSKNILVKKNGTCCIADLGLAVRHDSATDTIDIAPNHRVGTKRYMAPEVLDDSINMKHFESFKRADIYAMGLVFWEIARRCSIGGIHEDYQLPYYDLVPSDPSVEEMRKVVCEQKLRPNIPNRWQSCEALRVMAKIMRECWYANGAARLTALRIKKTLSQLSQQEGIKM

[4] = target: Dual specificity protein kinase CLK1 (Homo sapiens, UniProt P49759)
Note: in the data inactive means no Kd found up to 30 µM.

Sequence of Dual specificity protein kinase CLK1 (P49759 whole entry): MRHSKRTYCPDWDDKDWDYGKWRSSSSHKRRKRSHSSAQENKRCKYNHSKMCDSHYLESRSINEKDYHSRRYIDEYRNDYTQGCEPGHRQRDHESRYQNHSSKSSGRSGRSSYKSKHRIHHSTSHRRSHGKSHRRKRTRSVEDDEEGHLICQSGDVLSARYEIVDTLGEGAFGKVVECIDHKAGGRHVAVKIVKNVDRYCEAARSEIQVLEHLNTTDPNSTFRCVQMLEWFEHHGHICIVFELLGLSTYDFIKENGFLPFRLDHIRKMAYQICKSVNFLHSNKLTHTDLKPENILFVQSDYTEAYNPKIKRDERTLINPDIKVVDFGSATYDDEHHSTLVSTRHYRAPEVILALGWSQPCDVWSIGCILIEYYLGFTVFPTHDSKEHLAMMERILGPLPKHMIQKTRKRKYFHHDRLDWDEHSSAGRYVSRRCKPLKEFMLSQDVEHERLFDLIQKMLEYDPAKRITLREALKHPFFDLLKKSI
Sequence of Serine/threonine-protein kinase MRCK gamma (Q6DT37 whole entry): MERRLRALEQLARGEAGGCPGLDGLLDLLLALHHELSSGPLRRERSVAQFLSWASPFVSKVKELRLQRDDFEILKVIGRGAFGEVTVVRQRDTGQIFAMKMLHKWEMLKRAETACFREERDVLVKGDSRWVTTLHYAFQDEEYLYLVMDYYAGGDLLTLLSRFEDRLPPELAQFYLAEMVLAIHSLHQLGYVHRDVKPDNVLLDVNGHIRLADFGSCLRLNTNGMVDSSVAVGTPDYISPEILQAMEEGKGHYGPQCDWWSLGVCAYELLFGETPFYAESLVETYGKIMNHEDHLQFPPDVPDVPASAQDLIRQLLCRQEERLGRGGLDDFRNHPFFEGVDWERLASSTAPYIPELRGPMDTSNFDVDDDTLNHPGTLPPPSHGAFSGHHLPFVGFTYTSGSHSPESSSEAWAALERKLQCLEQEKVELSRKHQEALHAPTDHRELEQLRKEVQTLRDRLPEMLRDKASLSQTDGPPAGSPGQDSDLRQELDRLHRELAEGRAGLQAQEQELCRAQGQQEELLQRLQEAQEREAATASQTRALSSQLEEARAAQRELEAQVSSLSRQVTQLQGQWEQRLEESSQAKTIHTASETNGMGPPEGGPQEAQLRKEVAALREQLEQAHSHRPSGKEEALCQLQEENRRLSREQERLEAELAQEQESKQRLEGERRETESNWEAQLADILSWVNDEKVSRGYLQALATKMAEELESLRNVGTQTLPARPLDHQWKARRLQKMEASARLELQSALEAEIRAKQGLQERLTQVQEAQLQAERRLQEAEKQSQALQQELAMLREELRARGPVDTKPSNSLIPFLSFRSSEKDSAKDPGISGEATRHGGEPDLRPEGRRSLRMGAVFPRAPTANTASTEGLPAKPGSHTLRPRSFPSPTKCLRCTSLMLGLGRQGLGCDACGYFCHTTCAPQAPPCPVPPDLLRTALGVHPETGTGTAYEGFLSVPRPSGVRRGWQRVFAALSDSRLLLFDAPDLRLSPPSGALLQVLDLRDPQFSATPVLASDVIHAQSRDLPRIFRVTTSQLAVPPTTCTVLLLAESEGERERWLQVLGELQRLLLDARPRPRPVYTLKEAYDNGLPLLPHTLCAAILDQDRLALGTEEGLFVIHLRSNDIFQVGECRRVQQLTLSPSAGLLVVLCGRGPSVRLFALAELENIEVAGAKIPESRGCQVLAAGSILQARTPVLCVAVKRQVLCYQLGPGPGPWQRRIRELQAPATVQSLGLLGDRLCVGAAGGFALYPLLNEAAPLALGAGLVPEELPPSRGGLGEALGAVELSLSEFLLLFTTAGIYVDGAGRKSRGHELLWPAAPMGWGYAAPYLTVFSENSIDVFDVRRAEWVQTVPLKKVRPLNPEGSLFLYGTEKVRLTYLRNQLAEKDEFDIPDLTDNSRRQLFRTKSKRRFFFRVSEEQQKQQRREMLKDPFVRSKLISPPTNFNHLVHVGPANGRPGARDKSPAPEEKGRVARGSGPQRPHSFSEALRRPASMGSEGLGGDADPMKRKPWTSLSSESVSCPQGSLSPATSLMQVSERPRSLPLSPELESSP
Sequence of Calcium/calmodulin-dependent protein kinase type II subunit gamma (Q13555 whole entry): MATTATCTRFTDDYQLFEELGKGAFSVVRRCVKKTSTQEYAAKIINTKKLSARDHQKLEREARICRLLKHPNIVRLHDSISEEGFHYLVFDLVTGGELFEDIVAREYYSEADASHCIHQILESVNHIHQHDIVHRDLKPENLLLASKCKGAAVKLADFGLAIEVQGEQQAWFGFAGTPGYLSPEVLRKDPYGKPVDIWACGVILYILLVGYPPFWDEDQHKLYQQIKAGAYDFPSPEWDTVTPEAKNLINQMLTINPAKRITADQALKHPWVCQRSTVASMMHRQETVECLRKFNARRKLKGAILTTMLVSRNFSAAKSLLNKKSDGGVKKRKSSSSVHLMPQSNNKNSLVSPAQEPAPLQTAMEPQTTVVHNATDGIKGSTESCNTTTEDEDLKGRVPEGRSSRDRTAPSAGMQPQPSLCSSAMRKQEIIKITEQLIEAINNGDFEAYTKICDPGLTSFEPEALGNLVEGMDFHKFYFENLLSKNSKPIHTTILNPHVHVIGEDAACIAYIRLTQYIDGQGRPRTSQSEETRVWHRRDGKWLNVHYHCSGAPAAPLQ

Row | Structure (SMILES) | Kd [1] | Kd [2] | Kd (Ephrin type-A receptor 1) | Kd [3] | Kd (TGF-beta receptor type-1) | Kd [4]
1 | C[C@@H](Oc1cc(C(=O)Nc2ccc(C(=O)N3CCN(C)CC3)cc2)nnc1N)c1c(Cl)ccc(F)c1Cl | > 30 µM (inactive) | > 30 µM (inactive) | > 30 µM (inactive) | > 30 µM (inactive) | > 30 µM (inactive) | 
2 | C[C@H]1CNCCCN1S(=O)(=O)c1cccc2cncc(F)c12 | > 30 µM (inactive) | > 30 µM (inactive) | > 30 µM (inactive) | > 30 µM (inactive) | > 30 µM (inactive) | 
3 | COCc1c(-c2ccc(NC(=O)Nc3cc(C(F)(F)F)ccc3F)c(F)c2)c2c(N)ncnn2c1CN1CCOCC1 | > 30 µM (inactive) |  | > 30 µM (inactive) | > 30 µM (inactive) | > 30 µM (inactive) | > 30 µM (inactive)
4 | Nc1ncnc2c1c(-c1cccc(OCc3ccccc3)c1)cn2[C@H]1C[C@@H](CN2CCC2)C1 [AEW-541] | > 30 µM (inactive) | > 30 µM (inactive) | > 30 µM (inactive) | > 30 µM (inactive) | > 30 µM (inactive) | 
5 | Cc1csc(-c2nnc(Nc3ccc(Oc4ncccc4-c4ccnc(N)n4)cc3)c3ccccc23)c1 [AMG-900] | > 30 µM (inactive) | > 30 µM (inactive) |  | > 30 µM (inactive) | > 30 µM (inactive) | 2.46 µM (active)
6 | O=C(Nc1c[nH]nc1-c1nc2cc(CN3CCOCC3)ccc2[nH]1)NC1CC1 [AT-9283] | > 30 µM (inactive) | > 30 µM (inactive) |  | > 30 µM (inactive) | 0.077 µM (active) | 2.04 µM (active)
7 | COc1cc([C@@H]2c3cc4c(cc3[C@H](O)[C@H]3COC(=O)[C@@H]23)OCO4)cc(OC)c1OC [AXL-1717] | > 30 µM (inactive) | > 30 µM (inactive) | > 30 µM (inactive) | > 30 µM (inactive) | > 30 µM (inactive) | 
8 | NC(=O)Nc1cc(-c2cccc(F)c2)sc1C(=O)N[C@H]1CCCNC1 [AZD-7762] | > 30 µM (inactive) | > 30 µM (inactive) |  | > 30 µM (inactive) | > 30 µM (inactive) | > 30 µM (inactive)
9 | Cc1cc(C(=O)NOCCO)c(Nc2ccc(I)cc2F)n(C)c1=O [AZD-8330] | > 30 µM (inactive) | > 30 µM (inactive) |  | > 30 µM (inactive) | > 30 µM (inactive) | > 30 µM (inactive)
10 | COc1c(OCCCN2CCOCC2)ccc2c1N=C(NC(=O)c1cnc(N)nc1)N1CCN=C21 [COPANLISIB] | > 30 µM (inactive) | > 30 µM (inactive) |  | > 30 µM (inactive) | > 30 µM (inactive) | > 30 µM (inactive)
11 | Cc1nc2cc(-n3ncc(C(=O)c4cc5ccccc5[nH]4)c3N)ccc2[nH]1 [FGFR INHIBITOR DEBIO 1347] | > 30 µM (inactive) | > 30 µM (inactive) | > 30 µM (inactive) | > 30 µM (inactive) | > 30 µM (inactive) | 
12 | O=C(Nc1nc2cccc(-c3ccc(CN4CCS(=O)(=O)CC4)cc3)n2n1)C1CC1 [FILGOTINIB] | > 30 µM (inactive) | > 30 µM (inactive) | > 30 µM (inactive) | > 30 µM (inactive) | > 30 µM (inactive) | 
13 | Cc1cccc(-c2nn3c(c2-c2ccnc4ccc(C(N)=O)cc24)CCC3)n1 [GALUNISERTIB] | > 30 µM (inactive) | > 30 µM (inactive) |  | > 30 µM (inactive) |  | > 30 µM (inactive)
14 | CCn1cc(-c2ccnc3[nH]c(-c4cccc(CN(C)C)c4)cc23)c(-c2ccc(NC(=O)N(C)C)cc2)n1 [GSK-1070916] | > 30 µM (inactive) |  | > 30 µM (inactive) |  | 1.94 µM (active) | > 30 µM (inactive)
15 | CN(C[C@@H]1COCCO1)S(=O)(=O)Nc1ccc2ccc3ncc(-c4cnn(C)c4)cc3c(=O)c2c1 [MK-2461] | > 30 µM (inactive) | > 30 µM (inactive) | > 30 µM (inactive) | > 30 µM (inactive) | > 30 µM (inactive) | 
16 | COc1ncc(-c2ccc3nccc(-c4ccnnc4)c3c2)cc1NS(=O)(=O)c1ccc(F)cc1F [OMIPALISIB] | > 30 µM (inactive) | > 30 µM (inactive) |  | > 30 µM (inactive) | > 30 µM (inactive) | > 30 µM (inactive)
17 | CNC(=O)c1cc(Oc2ccc(NC(=O)Nc3cc(C(C)(C)C)nn3-c3ccc4ncccc4c3)c(F)c2)ccn1 [REBASTINIB] | > 30 µM (inactive) | > 30 µM (inactive) |  | > 30 µM (inactive) | > 30 µM (inactive) | 2.14 µM (active)
18 | N#CC[C@H](C1CCCC1)n1cc(-c2ncnc3[nH]ccc23)cn1 [RUXOLITINIB] | 0.259 µM (active) |  |  |  |  | 
19 | CN1CCN(CCOc2cc(OC3CCOCC3)c3c(Nc4c(Cl)ccc5c4OCO5)ncnc3c2)CC1 [SARACATINIB] | > 30 µM (inactive) | > 30 µM (inactive) |  | > 30 µM (inactive) | 0.197 µM (active) | > 30 µM (inactive)
20 | O=C1NC(=O)[C@@H](c2cn3c4c(cccc24)CCC3)[C@@H]1c1c[nH]c2ccccc12 [TIVANTINIB] | > 30 µM (inactive) | > 30 µM (inactive) |  | > 30 µM (inactive) | > 30 µM (inactive) | > 30 µM (inactive)
21 | Cc1cc(Nc2ncnc3ccc(NC4=NC(C)(C)CO4)cc23)ccc1Oc1ccn2ncnc2c1 [TUCATINIB] | > 30 µM (inactive) | > 30 µM (inactive) | > 30 µM (inactive) | > 30 µM (inactive) | > 30 µM (inactive) | 
22 | Cn1ncc(Cl)c1-c1cc(C(=O)N[C@H](CN)Cc2ccc(F)c(F)c2)oc1Cl [UPROSERTIB] | > 30 µM (inactive) | > 30 µM (inactive) | > 30 µM (inactive) | > 30 µM (inactive) | > 30 µM (inactive) | 
23 | CC(C)c1cc(CNc2nc(Nc3cc(C4CC4)[nH]n3)cc(N3CCN(C)CC3)n2)on1 [XL-228] | > 30 µM (inactive) |  | 0.005 µM (active) | > 30 µM (inactive) |  | > 30 µM (inactive)

From ChEMBL document CHEMBL3991601, “The target landscape of clinical kinase drugs” (Science, 2017)
